Data from patent US20260345585A1, “DIETARY SUPPLEMENT COMPRISING A PREBIOTIC AND ANTIOXIDANT” (N.V. Nutricia, priority 2023, published 2026).

Columns and labels:
[1] = test system: RAW264.7 macrophages; assay: Macrophage proliferation (CCK-8 viability of LPS-stimulated RAW264.7 cells); type: cell-based
Procedure: (§1) RAW264.7 macrophages were purchased from the National Collection of Authenticated Cell Cultures (Shanghai, China). The cell culture medium was supplemented with 10% fetal bovine serum and 100 U/mL penicillin and 100 μg/mL streptomycin in DMEM culture medium.
The viability of RAW264.7 cells was measured by Cell Counting Kit (CCK-8). Briefly, RAW264.7 cells were plated into 96-well plates at a density of 5×10^4 cells/well and incubated at 37 °C, 5% CO2 for 24 hours. Next the cells were exposed to 1 μg/mL lipopolysaccharides (LPS) for 24 hours to induce an inflammatory response by the RAW264.7 cells. Subsequently, the cells were exposed to different combinations of test ingredients for 24 hours. For the control, the cells were stimulated with LPS for 24 hours, followed by 24 hours with medium only. […] The absorbance was recorded on an automatic microplate reader with an […] of 450 nm. The higher the measured value, the higher the number of viable cells.
The macrophage proliferation is expressed as a percentage compared to the control (LPS only) which was set to 100%. […]
For this evaluation, the concentration at which each test ingredient provided an equivalent effect on macrophage proliferation was determined.
A combination of two compounds was considered as having synergy if both values, as calculated according to formulas 1a and 1b below, were higher than 1. […]

[2] = test system: RAW264.7 macrophages; assay: ROS production (DCFH-DA probe in LPS-stimulated RAW264.7 cells); type: cell-based; settings: Mus musculus, 10 μg/mL, relative to control (LPS only) set to 100%
Procedure: as §1
The accumulation of ROS was assessed by the radical probe DCFH-DA. At the beginning, RAW264.7 cells were seeded in 6-well plate at 1×10^6 cells/well for 24 hours followed by a 24 hour exposure to LPS to induce an inflammatory response by the RAW264.7 cells. Subsequently, the cells were exposed to different combinations of test ingredients. For the control, the cells were stimulated with LPS for 24 hours, followed by 24 hour with medium only. All experiments were performed in triplicate. […] After incubation at 37 °C for 20 minutes in the dark, the cells were washed and lysed to release intracellular DCF and the fluorescence intensity was detected at 488 nm excitation and 525 nm emission using a microplate spectrofluorometer. The higher the measured value, the higher the level of ROS.
A combination of two compounds was considered as having synergy if both values, as calculated according to formulas 1a and 1b below, were higher than 1. […] If a combination of three compounds were to be evaluated, a similar logic is applied, but the assessed concentration in the combination is divided by 3 and three comparisons are made. […]

SMILES: O=C(O)c1cc(C(=O)O)c2c(n1)C(=O)C(=O)c1cc(C(=O)O)[nH]c1-2 [PQQ, Pyrroloquinoline quinone]
- activity at 10 µg/mL ([1]; Mus musculus, RAW264.7, 24 h, Example 2, 10 μg/mL, relative to control (LPS only) set to 100%): 142 ± 14.1%
- Concentration that provided an equivalent effect on macrophage proliferation ([1]; Table 4, LPS-stimulated RAW264.7 cells): 10 µg/mL
- activity at 10 µg/mL [2]: 62.8 ± 5.3%
